Source: US20250101057A1, “SOLID FORMS” (Gilead Sciences, Inc., priority 2023, published 2025)

Assay: Dynamic Vapor Sorption (DVS) hygroscopicity
Assay type: physicochemical
Settings: for DVS (%): Table 6 summary of crystalline Forms I-V; for hygroscopicity by DVS analysis (in words): 0 to 90% RH at 25° C.; for DVS weight change: from 0 to 90% RH at 25° C.
Procedure: Dynamic Vapor Sorption (DVS) was used to study hygroscopicity on Model Q5000 SA (TA Instruments, New Castle, DE). A sample (1-10 mg) was placed in an aluminum pan and loaded on the sample side of the twin pan balance. The water sorption and desorption were studied as a function of relative humidity (RH) at 25° C. in 10% RH increments from 0% RH to 90% RH and then back to 0%. […] Data analysis was performed using Universal Analysis 2000 Version 4.7A (TA Instruments, New Castle, DE).

[1] = listed as Compound 1, crystalline Form II
[2] = listed as Compound 1, crystalline Form III
[3] = listed as Compound 1, crystalline Form IV
[4] = listed as Compound 1, crystalline Form V

C#C[C@]1(COC(=O)Cc2ccccc2)O[C@@H](n2cnc3c(N)nc(F)nc32)C[C@@H]1OC(=O)Cc1ccccc1 [Form I, (2R,3S,5R)-5-(6-amino-2-fluoro-9H-purin-9-yl)-2-ethynyl-2-((2-phenylacetoxy)methyl)tetrahydrofuran-3-yl 2-phenylacetate]
DVS (%) (listed as I): 0.85%

C#C[C@]1(COC(=O)Cc2ccccc2)O[C@@H](n2cnc3c(N)nc(F)nc32)C[C@@H]1OC(=O)Cc1ccccc1 [Form II, (2R,3S,5R)-5-(6-amino-2-fluoro-9H-purin-9-yl)-2-ethynyl-2-((2-phenylacetoxy)methyl)tetrahydrofuran-3-yl 2-phenylacetate]
hygroscopicity by DVS analysis (in words) [1]: non-hygroscopic
DVS (%) (listed as II): 0.08%
DVS weight change [1]: around 0.1%

C#C[C@]1(COC(=O)Cc2ccccc2)O[C@@H](n2cnc3c(N)nc(F)nc32)C[C@@H]1OC(=O)Cc1ccccc1 [Form III, (2R,3S,5R)-5-(6-amino-2-fluoro-9H-purin-9-yl)-2-ethynyl-2-((2-phenylacetoxy)methyl)tetrahydrofuran-3-yl 2-phenylacetate]
hygroscopicity by DVS analysis (in words) [2]: slightly hygroscopic
DVS (%) (listed as III): 1.2%
DVS weight change [2]: ~1.2%

C#C[C@]1(COC(=O)Cc2ccccc2)O[C@@H](n2cnc3c(N)nc(F)nc32)C[C@@H]1OC(=O)Cc1ccccc1 [Form IV, (2R,3S,5R)-5-(6-amino-2-fluoro-9H-purin-9-yl)-2-ethynyl-2-((2-phenylacetoxy)methyl)tetrahydrofuran-3-yl 2-phenylacetate]
hygroscopicity by DVS analysis (in words) [3]: non-hygroscopic
DVS (%) (listed as IV): 0.16%
DVS weight change [3]: ~0.16%

C#C[C@]1(COC(=O)Cc2ccccc2)O[C@@H](n2cnc3c(N)nc(F)nc32)C[C@@H]1OC(=O)Cc1ccccc1 [Form V, (2R,3S,5R)-5-(6-amino-2-fluoro-9H-purin-9-yl)-2-ethynyl-2-((2-phenylacetoxy)methyl)tetrahydrofuran-3-yl 2-phenylacetate]
hygroscopicity by DVS analysis (in words) [4]: non-hygroscopic
DVS (%) (listed as V): 0.10%
DVS weight change [4]: ~0.1%
